PubChem BioAssay AID330 (DTP/NCI, 2004)
“And” between values parts separate entries of the source, which are not always exact repeats. Equal entries are not always repeated. Toxic doses and inconclusive results are not listed.

System: P388 leukemia ip, CD2F1 mice, survival T/C
Test: NCI In Vivo Anticancer Drug Screen. Data for tumor model P388 Leukemia (intraperitoneal) in CD2F1 (CDF1) mice
Conditions: endpoint: median survival time, higher = longer survival
Summary of the method: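 Mice carrying the transplanted tumor received test compound or vehicle. Survival was recorded in each group, and the value is the treated-group measurement divided by that of the vehicle-treated control group.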

[1] = dose: 240.0 mg/kg/injection, schedule: Q01DX005 (ip), vehicle: saline with Tween-80
[2] = dose: 50.0 mg/kg/injection, schedule: Q01DX009 (ip), vehicle: saline with Tween-80
[3] = dose: 50.0 mg/kg/injection, schedule: Q01DX005 (ip), vehicle: Klucel (hydroxypropylcellulose) (HPC)
[4] = dose: 100.0 mg/kg/injection, schedule: Q01DX005 (ip), vehicle: Klucel (hydroxypropylcellulose) (HPC)
[5] = dose: 200.0 mg/kg/injection, schedule: Q01DX005 (ip), vehicle: Klucel (hydroxypropylcellulose) (HPC)
[6] = dose: 60.0 mg/kg/injection, schedule: Q01DX005 (ip), vehicle: saline with Tween-80
[7] = dose: 120.0 mg/kg/injection, schedule: Q01DX005 (ip), vehicle: saline with Tween-80
[8] = dose: 25.0 mg/kg/injection, schedule: Q01DX005 (ip), vehicle: Klucel (hydroxypropylcellulose) (HPC)
[9] = dose: 100.0 mg/kg/injection, schedule: Q04DX003 (ip), vehicle: saline with Tween-80
[10] = dose: 200.0 mg/kg/injection, schedule: Q04DX003 (ip), vehicle: saline with Tween-80
[11] = dose: 400.0 mg/kg/injection, schedule: Q04DX003 (ip), vehicle: saline with Tween-80

`Nc1ccc2nc3cc4c5ccccc5c(=O)c5cccc(c54)n3c(=O)c2c1` was tested, and the T/C (dose: 50.0 mg/kg/injection, schedule: Q01DX005 (ip), vehicle: Klucel + Tween-80) was 104 % of control.

In the case of `O=C(/C=C/c1c(-c2ccccc2)[nH]c2ccccc12)c1ccccc1O`, the T/C (dose: 7.5 mg/kg/injection, schedule: Q01DX005 (ip), vehicle: saline with Tween-80) was 106 % of control, the T/C (dose: 15.0 mg/kg/injection, schedule: Q01DX005 (ip), vehicle: saline with Tween-80) was 92 % of control and the T/C (dose: 30.0 mg/kg/injection, schedule: Q01DX005 (ip), vehicle: saline with Tween-80) was 90 % of control. The T/C [1] was 88 % of control.

With `COc1oc(C2C/C(=C/C(C)=C/C(C)=C/C(C)=C/c3ccc([N+](=O)[O-])cc3)CO2)c(C)c(=O)c1C` (configuration not stated) the T/C (dose: 0.25 mg/kg/injection, schedule: Q01DX005 (ip), vehicle: saline) was 116 % of control, the T/C (dose: 0.5 mg/kg/injection, schedule: Q01DX005 (ip), vehicle: saline) was 107 % of control and the T/C (dose: 1.0 mg/kg/injection, schedule: Q01DX005 (ip), vehicle: saline) was 113 % of control. For the same molecule, the T/C (dose: 2.0 mg/kg/injection, schedule: Q01DX005 (ip), vehicle: saline) was 121 % of control.

For `CC(=O)Nc1ccc(/C=C2\C(=O)Nc3ccccc32)cc1`, the T/C (dose: 50.0 mg/kg/injection, schedule: Q01DX009 (ip), vehicle: Klucel (hydroxypropylcellulose) (HPC)) was 99 % of control and 91 % of control, the T/C (dose: 100.0 mg/kg/injection, schedule: Q01DX009 (ip), vehicle: Klucel (hydroxypropylcellulose) (HPC)) was 87 % of control and 96 % of control and the T/C (dose: 200.0 mg/kg/injection, schedule: Q01DX009 (ip), vehicle: Klucel (hydroxypropylcellulose) (HPC)) was 89 % of control and 91 % of control.

With `CC(C)CNc1ccc(S(=O)(=O)c2ccc(NCC(C)C)c([N+](=O)[O-])c2)cc1[N+](=O)[O-]` the T/C (dose: 6.25 mg/kg/injection, schedule: Q01DX009 (ip), vehicle: saline with Tween-80) was 98 % of control, the T/C (dose: 12.5 mg/kg/injection, schedule: Q01DX009 (ip), vehicle: saline with Tween-80) was 92 % of control and the T/C (dose: 25.0 mg/kg/injection, schedule: Q01DX009 (ip), vehicle: saline with Tween-80) was 87 % of control. The T/C [2] was 93 % of control.

With `CCCCOP(O)(=S)OCCCC.[Sm]` the T/C (dose: 100.0 mg/kg/injection, schedule: Q01DX001 (ip), vehicle: saline with Tween-80) was 92 % of control and the T/C (dose: 200.0 mg/kg/injection, schedule: Q01DX001 (ip), vehicle: saline with Tween-80) was 116 % of control.

`COc1cccc(C=O)c1OS(=O)(=O)c1ccc(C)cc1` was tested, and the T/C (dose: 25.0 mg/kg/injection, schedule: Q01DX009 (ip), vehicle: other) was 101 % of control, the T/C (dose: 50.0 mg/kg/injection, schedule: Q01DX009 (ip), vehicle: other) was 108 % of control and the T/C (dose: 100.0 mg/kg/injection, schedule: Q01DX009 (ip), vehicle: other) was 108 % of control.

For `FC(F)(F)c1ccc2cc(C3(C4CCNCC4)CCCO3)c3ccc(C(F)(F)F)cc3c2c1` (configuration not stated), the T/C (dose: 12.5 mg/kg/injection, schedule: Q01DX009 (ip), vehicle: distilled water + Tween-80) was 104 % of control and the T/C (dose: 25.0 mg/kg/injection, schedule: Q01DX009 (ip), vehicle: distilled water + Tween-80) was 95 % of control.

With `COc1nc(/C=C/c2ccccc2)c([N+](=O)[O-])c(OC)n1` the T/C (dose: 100.0 mg/kg/injection, schedule: Q04DX003 (ip), vehicle: saline) was 103 % of control, the T/C (dose: 200.0 mg/kg/injection, schedule: Q04DX003 (ip), vehicle: saline) was 103 % of control and the T/C (dose: 400.0 mg/kg/injection, schedule: Q04DX003 (ip), vehicle: saline) was 100 % of control.

In the case of `COC1=CC(=O)C(CC=C(C)C)=CC1=O`, the T/C [3] was 100 % of control, the T/C [4] was 102 % of control and the T/C [5] was 105 % of control.

For `COc1ccc(CCNC(C)Cc2ccc(OC)c(OC)c2)cc1OC` (configuration not stated), the T/C (dose: 3.13 mg/kg/injection, schedule: Q01DX009 (ip), vehicle: water) was 94 % of control, the T/C (dose: 6.25 mg/kg/injection, schedule: Q01DX009 (ip), vehicle: water) was 92 % of control and the T/C (dose: 12.5 mg/kg/injection, schedule: Q01DX009 (ip), vehicle: water) was 96 % of control. For the same molecule, the T/C (dose: 25.0 mg/kg/injection, schedule: Q01DX009 (ip), vehicle: water) was 100 % of control and the T/C (dose: 50.0 mg/kg/injection, schedule: Q01DX009 (ip), vehicle: water) was 99 % of control.

With `NC(N)=NS(=O)(=O)c1ccc(NCc2c3ccccc3nc3cc(Cl)ccc23)cc1` the T/C [6] was 170 % of control, the T/C [7] was 121 % of control and the T/C [1] was 116 % of control.

For `[N-]=[N+]=Nc1nn2cnnc2c2[nH]c3ccccc3c12`, the T/C (dose: 12.5 mg/kg/injection, schedule: Q01DX005 (ip), vehicle: Klucel (hydroxypropylcellulose) (HPC)) was 104 % of control, the T/C [8] was 108 % of control and the T/C [3] was 100 % of control and 101 % of control. For the same molecule, the T/C [4] was 96 % of control and the T/C [5] was 99 % of control.

With `Cc1ccc2oc(-c3ccccc3)c(O)c(=O)c2c1` the T/C [9] was 100 % of control, the T/C [10] was 108 % of control and the T/C [11] was 95 % of control.

`CC(=O)c1ccc[n+](Cc2c(Cl)cccc2Cl)c1` was tested, and the T/C (dose: 6.25 mg/kg/injection, schedule: Q01DX009 (ip), vehicle: saline) was 101 % of control, the T/C (dose: 12.5 mg/kg/injection, schedule: Q01DX009 (ip), vehicle: saline) was 100 % of control and 104 % of control and the T/C (dose: 25.0 mg/kg/injection, schedule: Q01DX009 (ip), vehicle: saline) was 101 % of control and 114 % of control.

With `C=C(C)C(=O)OC1C/C(CO)=C\C(O)C/C(C)=C/C2OC(=O)C(=C)C21` (configuration not stated) the T/C (dose: 1.25 mg/kg/injection, schedule: Q01DX009 (ip), vehicle: saline + alcohol) was 121 % of control, the T/C (dose: 2.5 mg/kg/injection, schedule: Q01DX009 (ip), vehicle: saline + alcohol) was 104 % of control and the T/C (dose: 10.0 mg/kg/injection, schedule: Q01DX009 (ip), vehicle: saline + alcohol) was 159 % of control. The T/C (dose: 20.0 mg/kg/injection, schedule: Q01DX009 (ip), vehicle: saline + alcohol) was 167 % of control.

With `O=C(Nc1ccccc1)C1(c2ccccc2)CCCCC1` the T/C [8] was 101 % of control, the T/C [3] was 99 % of control and the T/C [4] was 100 % of control. For the same molecule, the T/C [5] was 93 % of control.

In the case of `COc1cc2c(cc1OC)[C@H]1O[C@H](OC)c3c(ccc4c3OCO4)[C@H]1N(C)CC2`, the T/C (dose: 7.25 mg/kg/injection, schedule: Q01DX005 (ip), vehicle: Klucel (hydroxypropylcellulose) (HPC)) was 106 % of control, the T/C (dose: 14.5 mg/kg/injection, schedule: Q01DX005 (ip), vehicle: Klucel (hydroxypropylcellulose) (HPC)) was 100 % of control and the T/C (dose: 29.0 mg/kg/injection, schedule: Q01DX005 (ip), vehicle: Klucel (hydroxypropylcellulose) (HPC)) was 106 % of control. The T/C (dose: 58.0 mg/kg/injection, schedule: Q01DX005 (ip), vehicle: Klucel (hydroxypropylcellulose) (HPC)) was 96 % of control.

For `c1csc(SSc2nccs2)n1`, the T/C (dose: 25.0 mg/kg/injection, schedule: Q04DX002 (ip), vehicle: saline with Tween-80) was 104 % of control, the T/C (dose: 50.0 mg/kg/injection, schedule: Q04DX002 (ip), vehicle: saline with Tween-80) was 103 % of control and the T/C (dose: 100.0 mg/kg/injection, schedule: Q04DX002 (ip), vehicle: saline with Tween-80) was 103 % of control and 105 % of control.

`COc1cc2c(cc1OC)C(CSC)Cc1cc(OC)c(OC)cc1N(C)CCC2` (configuration not stated) was tested, and the T/C [9] was 102 % of control, the T/C [10] was 93 % of control and the T/C [11] was 93 % of control.

`C/C=C(/C(=O)O)S(=O)(=O)O.[Ag]` was tested, and the T/C (dose: 20.0 mg/kg/injection, schedule: Q01DX009 (ip), vehicle: saline with Tween-80) was 103 % of control.

`COC(=O)CC(OC)c1nc(C(=O)OC)c(C)c(=O)[nH]1` (configuration not stated) was tested, and the T/C (dose: 4.0 mg/kg/injection, schedule: Q01DX009 (ip), vehicle: water) was 111 % of control, the T/C (dose: 8.0 mg/kg/injection, schedule: Q01DX009 (ip), vehicle: water) was 101 % of control and the T/C (dose: 16.0 mg/kg/injection, schedule: Q01DX009 (ip), vehicle: water) was 96 % of control. The T/C (dose: 32.0 mg/kg/injection, schedule: Q01DX009 (ip), vehicle: water) was 99 % of control, the T/C (dose: 64.0 mg/kg/injection, schedule: Q01DX009 (ip), vehicle: water) was 102 % of control and the T/C (dose: 128.0 mg/kg/injection, schedule: Q01DX009 (ip), vehicle: water) was 105 % of control.

In the case of `CSc1cccc(NC(=O)Oc2ccc(Br)cc2)c1`, the T/C [2] was 91 % of control, the T/C (dose: 100.0 mg/kg/injection, schedule: Q01DX009 (ip), vehicle: saline with Tween-80) was 93 % of control and the T/C (dose: 200.0 mg/kg/injection, schedule: Q01DX009 (ip), vehicle: saline with Tween-80) was 101 % of control.

In the case of `COc1ccc2c(c1)CCc1c-2nc(N)nc1-c1nc(N)nc2c1CCc1cc(OC)ccc1-2`, the T/C [6] was 100 % of control, the T/C [7] was 100 % of control and the T/C [1] was 100 % of control.

With `CN(C)NCCCCCNN(C)C` the T/C [3] was 100 % of control, the T/C [4] was 102 % of control and the T/C [5] was 102 % of control.
